Measured values taken from the supplement of paper PMC4862054.

Tests used:
Test in all cases: normalised viability (% of control), CellTiter-Blue; higher = more viable cells (about 100 = DMSO control)
[1] = test system: BT-474; conditions: 100 nM; incubation time: 72 h
Protocol: (§1)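 DSRT, CellTiter-Blue viability, 72 h incubation. Signal is normalised to DMSO and benzethonium chloride controls. Value is the normalised response at dose 3.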

[2] = test system: BT-549; conditions: 100 nM; incubation time: 72 h
Protocol: as §1

[3] = test system: CAL-120; conditions: 100 nM; incubation time: 72 h
Protocol: as §1

[4] = test system: CAL-148; conditions: 10 nM; incubation time: 72 h
Protocol: as §1

[5] = test system: CAL-51; conditions: 10 nM; incubation time: 72 h
Protocol: as §1

[6] = test system: CAL-85-1; conditions: 10 nM; incubation time: 72 h
Protocol: as §1

[7] = test system: DU-4475; conditions: 10 nM; incubation time: 72 h
Protocol: as §1

[8] = test system: HCC1143; conditions: 100 nM; incubation time: 72 h
Protocol: as §1

[9] = test system: HCC1599; conditions: 100 nM; incubation time: 72 h
Protocol: as §1

[10] = test system: HCC1937; conditions: 100 nM; incubation time: 72 h
Protocol: as §1

[11] = test system: HDQ-P1; conditions: 10 nM; incubation time: 72 h
Protocol: as §1

[12] = test system: Hs578T; conditions: 100 nM; incubation time: 72 h
Protocol: as §1

[13] = test system: MDA-MB-231; conditions: 100 nM; incubation time: 72 h
Protocol: as §1

[14] = test system: MDA-MB-436; conditions: 100 nM; incubation time: 72 h
Protocol: as §1

[15] = test system: MDA-MB-453; conditions: 10 nM; incubation time: 72 h
Protocol: as §1

[16] = test system: MDA-MB-468; conditions: 100 nM; incubation time: 72 h
Protocol: as §1

[17] = test system: MFM-223; conditions: 100 nM; incubation time: 72 h
Protocol: as §1

[18] = test system: SK-BR-3; conditions: 100 nM; incubation time: 72 h
Protocol: as §1

[19] = test system: CAL-148; conditions: 300 nM; incubation time: 72 h
Protocol: (§2)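 DSRT, CellTiter-Blue viability, 72 h incubation. Signal is normalised to DMSO and benzethonium chloride controls. Value is the normalised response at dose 6.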

[20] = test system: CAL-51; conditions: 300 nM; incubation time: 72 h
Protocol: as §2

[21] = test system: CAL-85-1; conditions: 300 nM; incubation time: 72 h
Protocol: as §2

[22] = test system: DU-4475; conditions: 300 nM; incubation time: 72 h
Protocol: as §2

[23] = test system: HDQ-P1; conditions: 300 nM; incubation time: 72 h
Protocol: as §2

[24] = test system: MDA-MB-453; conditions: 300 nM; incubation time: 72 h
Protocol: as §2

[25] = test system: CAL-148; conditions: 10000 nM; incubation time: 72 h
Protocol: (§3)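 DSRT, CellTiter-Blue viability, 72 h incubation. Signal is normalised to DMSO and benzethonium chloride controls. Value is the normalised response at dose 9.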

[26] = test system: CAL-51; conditions: 10000 nM; incubation time: 72 h
Protocol: as §3

[27] = test system: CAL-85-1; conditions: 10000 nM; incubation time: 72 h
Protocol: as §3

[28] = test system: DU-4475; conditions: 10000 nM; incubation time: 72 h
Protocol: as §3

[29] = test system: HDQ-P1; conditions: 10000 nM; incubation time: 72 h
Protocol: as §3

[30] = test system: MDA-MB-453; conditions: 10000 nM; incubation time: 72 h
Protocol: as §3

| SMILES | normalised viability [1] [%] | normalised viability [2] [%] | normalised viability [3] [%] | normalised viability [4] [%] | normalised viability [5] [%] | normalised viability [6] [%] | normalised viability [7] [%] | normalised viability [8] [%] | normalised viability [9] [%] | normalised viability [10] [%] | normalised viability [11] [%] | normalised viability [12] [%] | normalised viability [13] [%] | normalised viability [14] [%] | normalised viability [15] [%] | normalised viability [16] [%] | normalised viability [17] [%] | normalised viability [18] [%] | normalised viability [19] [%] | normalised viability [20] [%] | normalised viability [21] [%] | normalised viability [22] [%] | normalised viability [23] [%] | normalised viability [24] [%] | normalised viability [25] [%] | normalised viability [26] [%] | normalised viability [27] [%] | normalised viability [28] [%] | normalised viability [29] [%] | normalised viability [30] [%] |
| --- | --- | --- | --- | --- | --- | --- | --- | --- | --- | --- | --- | --- | --- | --- | --- | --- | --- | --- | --- | --- | --- | --- | --- | --- | --- | --- | --- | --- | --- | --- |
| N#Cc1ccc(C(c2ccc(C#N)cc2)n2cncn2)cc1 [Letrozole] | 102 | 97 | 76.4 | 87.8 | 110 | 90.3 | 99.8 | 77.9 | 104 | 97.4 | 101 | 88.1 | 84 | 106 | 88 | 91.3 | 74.9 | 83 | 101 | 104 | 86.4 | 81.2 | 69.4 | 100 | 92.4 | 96.3 | 70.3 | 82.9 | 93 | 51.8 |
| NCCCNCCSP(=O)(O)O [Amifostine] | 95.8 | 103 | 90.4 | 93.5 | 105 | 90.7 | 97.3 | 78.3 | 98.2 | 85.5 | 105 | 79.1 | 93.1 | 107 | 85.7 | 102 | 77.7 | 108 | 95.2 | 103 | 93.8 | 87.7 | 63.9 | 105 | 95.2 | 108 | 89.9 | 90.6 | 100 | 86.4 |
